# In patent publication US20230285357A1, “COMPOSITIONS AND METHODS FOR […] CELLS” (The Regents of the University of California, priority 2020, published 2023):
# How the values were obtained:
# SMAD1 and β-catenin = experiment: Immunoblotting of SMAD1, phosphorylated SMAD1 and β-catenin in treated osteoblasts; assay type: cell-based, mouse; conditions: different doses
# Source text: (§1) The expression of transcription factors that are known to be involved in bone formation or vascular development were screened. […] To determine if excess β-catenin affected SMAD1 expression, β-catenin in SB216763-treated osteoblasts was depleted by using siRNA. […] DNA-binding sites of β-catenin by locating the binding motifs in Smad1 gene was explored, and identified four individual sites located at −196 bp, −1454 bp, −2805 bp and −4729 bp upstream of exon1 of Smad1 gene (FIG. 3, Part D). […] Then, transcriptional status of Smad1 was determined by examining the histone modification, including trimethylated histone H3 lysine 4 (H3K4me3) associated with active transcription and H3K27me3 a closed chromatin mark.
# Immunoblotting was performed as previously described. Equal amounts of tissue lysates were used for immunoblotting. Blots were incubated with specific antibodies to SMAD1, GSK3α and GSK3β (all from Cell Signaling Technology, 9743, 433T and 93115), β-catenin and cbfa1 (all from R&D system, AF1329 and MAB2006), osterix (Santa Cruz Biotechnology, sc-22536), Flk1 and VE-cadherin (all from BD Bioscience, 55307 and 562242), vWF (Dako, A0082). 3-Actin (Sigma-Aldrich, A2228) was used as a loading control. Immunofluorescence was performed as previously described in detail. […]
# GSK3α and GSK3β = conditions: cited from earlier work
# vascular repair = experiment: Hindlimb ischemia model in nude mice after cell transplantation; assay type: in vivo, mouse
# Experimental: Then, same cells in a model of hindlimb ischemia in nude mice to evaluate the capacity of eGFP positive cells in vascular repair were tested. After ligation of the proximal and distal femoral artery, eGFP positive cells were transplanted (FIG. 2, Part F). Human aortic endothelial cells (HAECs) and osteoblasts were used as controls.
# Tube formation assays in vitro was then tested. […] Cells into hindlimb ischemia mouse model were transplanted.
# Laser Doppler perfusion imaging was performed using real-time microcirculation imaging system (Perimed). The imaging was conducted under normal ambient room lighting. 20×27 mm high resolution model was used with 1388×1038 pixels measurement camera and 752×580 pixels documentation camera as one image per second. The image resolution was set up as 20 μm/pixel and 21 images per frame until stopped. Windows based PIMSoft software (Perimed) was used to process the data.
# The murine model of hindlimb ischemia was performed as previously described. A 10 mm long incision of the skin was made towards the medial thigh. The femoral artery was exposed and separated from femoral vein and nerve. Silk sutures were used to tie the proximal and the distal end of femoral artery with double knots. The cells (5×10^5) were transplanted into the surgical area and the incision was closed. Laser Doppler perfusion imaging was used to monitor the blood flow at different time points. Histology and immunostaining were used to examine the vascularization 2 weeks after transplantation.
# [1] = tested on: promoter region of Smad1 gene; experiment: ChIP assay of β-catenin DNA-binding and histone modification in promoter of Smad1 gene; assay type: cell-based, mouse
# Source text: as §1
# βChIP assays were performed as previously described. Specific antibodies for β-catenin were used (R&D System, MAB2006), H3k4me3 (Abcam, ab8580) and H3k27me3 (Abcam, ab6002). The primers for the real-time PCR: 5′GAAAATAACACAGGCTTTG3′ (SEQ ID NO: 13) and 5′ GCTCCCCGAGCCTGGATT 3′ (SEQ ID NO: 14); 5′ GGACAGAGGCTCTCATTCC 3′ (SEQ ID NO: 15) and 5′[…]3′ (SEQ ID NO: 16) and 5′[…]3′ (SEQ ID NO: 17) 5′[…]3′ (SEQ ID NO: 18); 5′[…]3′ (SEQ ID NO: 19) and 5′[…]3′ (SEQ ID NO: 20).
# [2] = tested on: mouse osteoblast line MC3T3; experiment: Real-time PCR of osteogenic, endothelial and other lineage markers in treated mouse osteoblasts; assay type: cell-based
# Source text: A high throughput screen was generated by modifying the mouse osteoblast line MC3T3. Fetal liver kinase 1 (Flk1) promoter-driven enhanced green fluorescent protein (eGFP) was introduced into these osteoblasts. […] Several libraries of small molecules, including a FDA-approved drug library, a UCLA in-house collection, and a custom set of compounds were screened. These libraries contained more than 22,000 small molecules ranging from natural products to synthesized compounds. […] Using arrange of dose (1-10 μM), it is shown that the reduction of the osteogenic markers Cbfa1, osterix and osteocalcin and the induction of the endothelial markers CD34, VE-cadherin, CD31 and eNOS occurred in a dose-dependent manner (FIG. 1, Part E). Osteoblasts were then treated with 10 μM SB216763 and examined the time-course expression of these osteogenic and endothelial markers. […] To determine if a mesenchymal stage or emerging stemness is required for SB216763 to induce osteoblastic-endothelial transdifferentiation, mesenchymal and stem cell markers were examined and found no induction in the SB216763-treated cells (FIG. 9, Part E). It was further determined the specificity of endothelial differentiation by closely examining other vascular lineage markers including smooth muscle cells (SMCs), pericytes, and fibroblasts by using real-time PCR. In addition, no-vascular lineages, such as cardiac, neuronal, hepatic, pulmonary, renal, hematopoietic and adipogenic lineages were examined. […] Because GSK3 is important in glucose metabolism, the expression of genes related to glucose metabolism was determined in the SB216763-treated osteoblasts, such as casein kinase 2, glucose transporter 4, and insulin receptor substrates 1 and 2.
# Real-time PCR analysis was performed as previously described. Glyceraldehyde 3-phosphate dehydrogenase (GAPDH) was used as a control gene. Primers and probes for mouse and human Cbfa1, ostrix, osteocalcin, CD34, VE-cadherin, CD31, eNOS, SMAD1, and β-catenin, were obtained from Applied Biosystems as part of Tagman® Gene Expression Assays.
# [3] = dose range 1-10 μM, dose-dependent manner
compound,measurement,setting,value
Cn1cc(C2=C(c3ccc(Cl)cc3Cl)C(=O)NC2=O)c2ccccc21 [SB216763],expression and phosphorylation of SMAD1,SMAD1 and β-catenin,dose-dependent decrease
same,β-catenin protein level,SMAD1 and β-catenin,robust increase
same,inhibition of GSK3 isoforms GSK3α and GSK3β,GSK3α and GSK3β,specifically inhibits the activity of these GSK3 isoforms in an ATP competitive manner
same,"blood flow, Laser Doppler perfusion imaging",vascular repair; SB216763-treated cells with restoring SMAD1 vs controls,No difference was observed
same,"blood flow, Laser Doppler perfusion imaging",vascular repair; SB216763-treated osteoblasts with depletion of β-catenin vs cells without depletion,less blood flow
same,"vascular density, histology and immunostaining",vascular repair; transplanted eGFP positive cells,increase in vascular density
same,"limb blood flow, Laser Doppler perfusion imaging",vascular repair; transplanted eGFP positive cells compared to osteoblasts,significantly higher limb blood flow
same,histone modification H3K4me3 and H3K27me3 around β-catenin binding sites in Smad1 promoter,[1]; treated osteoblasts,lower abundance of H3K4me3 with higher abundance H3K27me3
same,β-catenin abundance around binding sites upstream of exon1 of Smad1 gene,[1]; treated osteoblasts vs non-treated controls,more abundance of β-catenin
same,time-course expression of osteogenic and endothelial markers,[2]; 10 μM,a reduction of osteogenic markers preceded the induction of the endothelial markers
same,"expression of endothelial markers CD34, VE-cadherin, CD31 and eNOS",[2]; [3],induction
same,"expression of osteogenic markers Cbfa1, osterix and osteocalcin",[2]; [3],reduction
same,"other vascular and non-vascular lineage markers (SMC, pericyte, fibroblast, cardiac, neuronal, hepatic, pulmonary, renal, hematopoietic, adipogenic)",[2]; real-time PCR,No changes were found
same,mesenchymal and stem cell markers,[2]; treated cells,no induction
same,"expression of genes related to glucose metabolism (casein kinase 2, glucose transporter 4, insulin receptor substrates 1 and 2)",[2]; treated osteoblasts,No changes were detected
